We go through three compounds from patent publication EP0668759B1, “TRANSDERMAL DELIVERY OF KETOROLAC” (Neurogesx, Inc., priority 1992, dated 1994).

The conditions of data set [1]: approximate; cited from earlier work.
The conditions of data set [2]: in the presence of light; cited from earlier work.
Data set [3] is classed as in vitro ADME, Human. Here is the method:
Skin permeation rates of various ketorolac/enhancer formulations were determined using flow through diffusion cells with an active area of 1 cm^2 and a receiving column of 3 ml. The receptor fluid, isotonic saline, was pumped into and through the cells by a peristaltic pump. Samples were collected in glass vials arranged in an automatic fraction collector. Human skin was placed on the lower half of the diffusion cell with the stratum corneum facing the donor compartment. The test solution or transdermal device was placed on the stratum corneum and the amount of drug permeated across the skin (µg/cm^2·hr) was calculated from the cumulative release.

For data set [4] the following is noted: water and methanol; cited from earlier work.

For `O=C(c1ccccc1)c1ccc2n1CCC2C(=O)O` (racemic) [ketorolac], the half-life in data set [1] was around 4 h. Besides, in data set [2], the stability to light entry is “degrades in the presence of light”.
On to `O=C(c1ccccc1)c1ccc2n1CC[C@@H]2C(=O)O` [(-) ketorolac], for which, in data set [3], the “permeability to human skin” value is listed as “as permeable to human skin as the racemate”.
With `O=C(c1ccccc1)c1ccc2n1CCC2C(=O)O` (stereo not shown) [Ketorolac tromethamine], in data set [4], the solubility entry is “freely soluble in water and methanol”.
